Results on 14 compounds are retold here after patent publication US7319029B2, “Lipase from Geobacillus sp. strain T1” (Universiti Purta Malaysia, priority 2004, dated 2008).

Where a SMILES comes first, the peptide text is derived from it. [ ]: non-standard residue; d: D form. The star is where a group is joined. Sta = CC(C)C[C@H](N)[C@@H](O)CC(=O)O; Isovaleryl = CC(C)CC(=O)*

In experiment [1] the test system is T1 mature lipase. Nature of the experiment: Effect of metal ions, surfactants and inhibitors on lipase activity. The experiment is classed as biochemical, Geobacillus sp. strain T1. Particulars: for Effect of metal ion on lipase activity: 1 mM, after 30 min of treatment; for Effect of metal ion on lipase activity / Inhibition of lipase activity / Effect of inhibitor on lipase activity: 50° C.; for Inhibition of lipase activity: metal ion 1 mM, after 30 min; for Effect of inhibitor on lipase activity: 5 mM (Pepstatin 1 mM), 30 min; for Effect of surfactant on lipase activity: 0.1%. The method, then: The T1 lipase was tested at temperatures ranging from 40° C. to 80° C. at 5° C. intervals for 30 min for enzyme activity. The thermostability test was conducted at various temperatures for different hours. Recombinant T1 lipase was also kept at a wide range of pH values ranging from pH 4-12 for pH activity and stability determination. The buffer systems used were 50 mM acetate buffer (pH 4-6), potassium phosphate buffer (pH 6-8), Tris-HCl buffer (pH 8-9), glycine-NaOH buffer (pH 9-11), and Na2HPO3/NaOH buffer (pH 11-12). The effect of effectors (metal ions, surfactants) and inhibitors were studied at a concentration of 1 mM and 5 mM, respectively at 50° C. for 30 min with an exceptional for pepstatin (1.0 mM).
The effect of metal ion at final concentration of 1 mM was tested by treatment at 50° C. for 30 min. […] The effect of surfactants on lipase activity on lipase activity was studied at concentration of 0.1% (FIG. 6).
The effect of inhibitors on lipase activity on several metal chelating agent, reducing agents, serine and aspartate inhibitors were used to study the inhibition effect to T1 mature lipase.

The subject of experiment [2] is T1 mature lipase. The experiment is described as above. Type of experiment: biochemical, Geobacillus sp. strain T1. The conditions noted are these: 1 mM, 50° C., after 15 min of treatment.
Experiment [3] relates to P1 lipase. The conditions noted are these: 10 mM of PMSF; cited from earlier work.

In the case of `[Ca+2]` [Ca^2+], the “Effect of metal ion on lipase activity” value in experiment [1] is given as “stabilizing effect”.

As for `[Cu+2]` [Cu^2+], the “Inhibition of lipase activity” value in experiment [1] amounted to 52%.

Take `O[C@@H](CS)[C@@H](O)CS` [DTT]: the “Effect of inhibitor on lipase activity” value in experiment [1] is listed as “little inhibition effect”.

As to `O=C(O)CN(CCN(CC(=O)O)CC(=O)O)CC(=O)O` [EDTA], the “Effect of inhibitor on lipase activity” value in experiment [1] was “slightly effect”.

As to `[Fe+2]` [Fe^2+], the “Inhibition of lipase activity” value in experiment [1] is 60%.

In the case of `[K+]` [K^+], the “Effect of metal ion on lipase activity” value in experiment [2] is “slightly enhanced”; in experiment [1], “stabilizing effect”.

As to `[Mg+2]` [Mg^2+], the “Effect of metal ion on lipase activity” value in experiment [1] was “stabilizing effect”.

Regarding `[Mn+2]` [Mn^2+], the “Effect of metal ion on lipase activity” value is given as “slightly enhanced” in experiment [2] and “stabilizing effect” in experiment [1].

As to `[Na+]` [Na^+], the “Effect of metal ion on lipase activity” value in experiment [2] is “slightly enhanced”.

In the case of `O=S(=O)(F)Cc1ccccc1` [PMSF], the “Inhibition of P1 lipase” value in experiment [3] is on record as 77%. Moreover, the “Effect of inhibitor on lipase activity” value in experiment [1] is listed as “strongly inhibited”.

With `CC(C)CC(=O)N[C@H](C(=O)N[C@H](C(=O)N[C@@H](CC(C)C)[C@@H](O)CC(=O)N[C@@H](C)C(=O)N[C@@H](CC(C)C)[C@@H](O)CC(=O)O)C(C)C)C(C)C` [Pepstatin] (Isovaleryl-VV[Sta]A[Sta]-OH), the “Effect of inhibitor on lipase activity” value in experiment [1] is “strongly inhibited”.

For the compound `[Zn+2]` [Zn^2+], the “Effect of metal ion on lipase activity” value in experiment [1] was “stabilizing effect”.

Regarding `OCCS` [β-mercaptoethanol], in experiment [1], the “Effect of inhibitor on lipase activity” value is “little inhibition effect”.

In the case of Tween, the “Effect of surfactant on lipase activity” value in experiment [1] is given as “obvious enhancement”; in experiment [1] (listed as Tween 20-80), “enhancement effect”.
